From PubChem BioAssay AID248 (DTP/NCI, 2004)
Where “and” joins values, the source holds several entries; their conditions need not be identical. Equal entries are not always repeated. Toxic doses and inconclusive results are not listed. No stated cut-off is given here; in the data, active means T/C of 150% or more; inactive means T/C below 125%.

System: L1210 leukemia ip in BDF1 mice, survival T/C
Test: NCI In Vivo Anticancer Drug Screen. Data for tumor model L1210 Leukemia (intraperitoneal) in B6D2F1 (BDF1) mice
Settings: endpoint: mean survival time, higher = longer survival
Method in brief: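 Transplantable tumor model; survival measured in treated vs vehicle control mice. Value = treated/control.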

[1] = dose: 100.0 mg/kg/injection, schedule: Q01DX009 (ip), vehicle: saline with Tween-80
[2] = dose: 200.0 mg/kg/injection, schedule: Q01DX009 (ip), vehicle: saline with Tween-80
[3] = dose: 400.0 mg/kg/injection, schedule: Q01DX009 (ip), vehicle: saline with Tween-80
[4] = dose: 100.0 mg/kg/injection, schedule: Q04DX002 (ip), vehicle: saline with Tween-80
[5] = dose: 100.0 mg/kg/injection, schedule: Q04DX003 (ip), vehicle: saline with Tween-80
[6] = dose: 200.0 mg/kg/injection, schedule: Q04DX002 (ip), vehicle: saline with Tween-80
[7] = dose: 200.0 mg/kg/injection, schedule: Q04DX003 (ip), vehicle: saline with Tween-80
[8] = dose: 400.0 mg/kg/injection, schedule: Q04DX003 (ip), vehicle: saline with Tween-80
[9] = dose: 100.0 mg/kg/injection, schedule: Q01DX009 (ip), vehicle: saline
[10] = dose: 100.0 mg/kg/injection, schedule: Q04DX002 (ip), vehicle: saline
[11] = dose: 200.0 mg/kg/injection, schedule: Q01DX009 (ip), vehicle: saline
[12] = dose: 200.0 mg/kg/injection, schedule: Q04DX002 (ip), vehicle: saline
[13] = dose: 400.0 mg/kg/injection, schedule: Q01DX009 (ip), vehicle: saline
[14] = dose: 400.0 mg/kg/injection, schedule: Q04DX002 (ip), vehicle: saline
[15] = dose: 100.0 mg/kg/injection, schedule: Q01DX001 (ip), vehicle: saline
[16] = dose: 200.0 mg/kg/injection, schedule: Q01DX001 (ip), vehicle: saline
[17] = dose: 400.0 mg/kg/injection, schedule: Q01DX001 (ip), vehicle: saline
[18] = dose: 100.0 mg/kg/injection, schedule: Q04DX003 (ip), vehicle: saline
[19] = dose: 200.0 mg/kg/injection, schedule: Q04DX003 (ip), vehicle: saline
[20] = dose: 100.0 mg/kg/injection, schedule: Q01DX009 (ip), vehicle: Klucel (hydroxypropylcellulose) (HPC)
[21] = dose: 200.0 mg/kg/injection, schedule: Q01DX009 (ip), vehicle: Klucel (hydroxypropylcellulose) (HPC)
[22] = dose: 400.0 mg/kg/injection, schedule: Q01DX009 (ip), vehicle: Klucel (hydroxypropylcellulose) (HPC)

Measured: T/C

NNC(=O)CCc1ccccc1O
inactive: [1] 93 % of control | [2] 91 % of control | [3] 93 % of control

O=C(CCCCCCCCC(=O)N/N=C/c1ccccc1)N/N=C/c1ccccc1
inactive: dose: 100.0 mg/kg/injection, schedule: Q01DX001 (ip), vehicle: saline with Tween-80 96 % of control and 90 % of control | [1] 102 % of control and 92 % of control | [4] 93 % of control and 97 % of control | [5] 97 % of control | dose: 200.0 mg/kg/injection, schedule: Q01DX001 (ip), vehicle: saline with Tween-80 88 % of control | [2] 93 % of control and 97 % of control | [6] 95 % of control and 87 % of control | [7] 97 % of control | dose: 400.0 mg/kg/injection, schedule: Q01DX001 (ip), vehicle: saline with Tween-80 86 % of control and 91 % of control | [3] 91 % of control and 92 % of control | dose: 400.0 mg/kg/injection, schedule: Q04DX002 (ip), vehicle: saline with Tween-80 93 % of control and 90 % of control | [8] 92 % of control

O=[N+]([O-])c1ccc(NS(=O)(=O)c2ccc(Cl)c(Cl)c2)cc1
inactive: dose: 12.5 mg/kg/injection, schedule: Q01DX001 (ip), vehicle: other 92 % of control | dose: 12.5 mg/kg/injection, schedule: Q01DX009 (ip), vehicle: gum acacia 101 % of control | dose: 12.5 mg/kg/injection, schedule: Q04DX003 (ip), vehicle: other 95 % of control | dose: 25.0 mg/kg/injection, schedule: Q01DX001 (ip), vehicle: other 97 % of control | dose: 25.0 mg/kg/injection, schedule: Q01DX009 (ip), vehicle: gum acacia 91 % of control | dose: 25.0 mg/kg/injection, schedule: Q04DX003 (ip), vehicle: other 94 % of control | dose: 50.0 mg/kg/injection, schedule: Q01DX001 (ip), vehicle: other 97 % of control | dose: 50.0 mg/kg/injection, schedule: Q04DX003 (ip), vehicle: other 94 % of control

C[C@]12CCC(=O)C=C1CC[C@@H]1[C@@H]2[C@@H](O)C[C@@]2(C)[C@H]1CC[C@]2(O)C(=O)CO
inactive: dose: 12.0 mg/kg/injection, schedule: Q01DX015 (sc), vehicle: steriod suspending solution 100 % of control | dose: 25.0 mg/kg/injection, schedule: Q01DX015 (sc), vehicle: steriod suspending solution 100 % of control | dose: 50.0 mg/kg/injection, schedule: Q01DX015 (sc), vehicle: steriod suspending solution 102 % of control | dose: 100.0 mg/kg/injection, schedule: Q01DX001 (sc), vehicle: steriod suspending solution 102 % of control | dose: 100.0 mg/kg/injection, schedule: Q01DX Z (sc), vehicle: steriod suspending solution 101 % of control | dose: 200.0 mg/kg/injection, schedule: Q01DX001 (sc), vehicle: steriod suspending solution 108 % of control | dose: 200.0 mg/kg/injection, schedule: Q01DX Z (sc), vehicle: steriod suspending solution 102 % of control | dose: 400.0 mg/kg/injection, schedule: Q01DX001 (sc), vehicle: steriod suspending solution 108 % of control | dose: 400.0 mg/kg/injection, schedule: Q01DX Z (sc), vehicle: steriod suspending solution 102 % of control | dose: 800.0 mg/kg/injection, schedule: Q01DX Z (sc), vehicle: steriod suspending solution 94 % of control | dose: 1000.0 mg/kg/injection, schedule: Q01DX015 (sc), vehicle: steriod suspending solution 104 % of control

C=C(Cl)CSC(C)(C)C
inactive: [9] 118 % of control | [10] 100 % of control | [11] 100 % of control | [12] 97 % of control | [13] 93 % of control | [14] 93 % of control

c1ccc(Cc2ccccc2)cc1
inactive: dose: 100.0 mg/kg/injection, schedule: Q04DX002 (ip), vehicle: Klucel (hydroxypropylcellulose) (HPC) 101 % of control | dose: 200.0 mg/kg/injection, schedule: Q04DX002 (ip), vehicle: Klucel (hydroxypropylcellulose) (HPC) 105 % of control | dose: 400.0 mg/kg/injection, schedule: Q04DX002 (ip), vehicle: Klucel (hydroxypropylcellulose) (HPC) 92 % of control

Cc1ccc2ccc(-c3ccccc3)nc2c1
inactive: [15] 96 % of control | [9] 93 % of control | [16] 105 % of control | [11] 90 % of control | [17] 109 % of control | [13] 92 % of control

C=CCCCCn1c2ccccc2c2c(C)c3cnccc3c(C)c21
inactive: [5] 91 % of control | [7] 91 % of control | [8] 92 % of control

N#CC1(Cc2ccc(OCc3ccccc3)c(OCc3ccccc3)c2)c2ccccc2C=CN1C(=O)c1ccccc1 (stereo not drawn)
inactive: dose: 25.0 mg/kg/injection, schedule: Q04DX003 (ip), vehicle: saline with Tween-80 100 % of control | dose: 50.0 mg/kg/injection, schedule: Q04DX003 (ip), vehicle: saline with Tween-80 91 % of control | [5] 89 % of control

CC(=O)OC1=C(OC(C)=O)N(S(=O)(=O)c2ccc(C)cc2)CCc2ccccc21
inactive: dose: 100.0 mg/kg/injection, schedule: Q01DX001 (ip), vehicle: carboxymethylcellulose (CMC) 97 % of control | dose: 200.0 mg/kg/injection, schedule: Q01DX001 (ip), vehicle: carboxymethylcellulose (CMC) 94 % of control | dose: 400.0 mg/kg/injection, schedule: Q01DX001 (ip), vehicle: carboxymethylcellulose (CMC) 100 % of control

Cc1cc(/C=C/c2ccccc2)nc2ccccc12
inactive: [15] 96 % of control | [16] 100 % of control | [17] 90 % of control

CC(C)(Cc1ccccc1)NC(=O)NCCCl
inactive: [9] 97 % of control | [10] 93 % of control | [11] 91 % of control | [12] 96 % of control | [13] 108 % of control | [14] 96 % of control

C=CCNC(C)=O
inactive: [9] 97 % of control | [18] 98 % of control | [11] 97 % of control | [19] 97 % of control | [13] 97 % of control

CCCCCCCC(=O)N1CCCC(C)C1 (stereo not drawn)
inactive: [10] 96 % of control | [12] 114 % of control | [14] 114 % of control

O=C(O)c1c2ccccc2cc2ccccc12
inactive: [20] 105 % of control | [21] 107 % of control | [22] 104 % of control

C[N+](C)(C)CCC[N+](C)(C)C
inactive: [9] 108 % of control | [18] 107 % of control | [11] 106 % of control | [19] 92 % of control | [13] 106 % of control | dose: 400.0 mg/kg/injection, schedule: Q04DX003 (ip), vehicle: saline 100 % of control

Nc1nc2nc(-c3ccc([N+](=O)[O-])cc3)nc(N)c2nc1-c1ccc(N(CCO)CCO)cc1
inactive: [15] 90 % of control | [16] 95 % of control | [17] 95 % of control

COC(=O)c1ccccc1NC(=O)Nc1ccc(SC)cc1
inactive: [20] 89 % of control | [21] 92 % of control | [22] 95 % of control

CC(=O)NCCCCCCNC(C)=O
inactive: dose: 10.0 mg/kg/injection, schedule: Q01DX Z (ip), vehicle: saline 100 % of control | dose: 30.0 mg/kg/injection, schedule: Q01DX Z (ip), vehicle: saline 104 % of control | dose: 100.0 mg/kg/injection, schedule: Q01DX Z (ip), vehicle: saline 100 % of control | dose: 300.0 mg/kg/injection, schedule: Q01DX Z (ip), vehicle: saline 100 % of control

CCOC(=O)CC(CC[N+](=O)[O-])C(=O)OCC (stereo not drawn)
inactive: dose: 50.0 mg/kg/injection, schedule: Q04DX002 (ip), vehicle: saline with Tween-80 108 % of control | [15] 109 % of control | [4] 89 % of control | [16] 110 % of control | [6] 96 % of control | [17] 97 % of control

COc1cc(OC)c(NC(=O)NC(C)(C)C)cc1Cl
inactive: [20] 93 % of control | [21] 95 % of control | [22] 98 % of control

CC(=O)OCC(C)(C)N
inactive: [10] 89 % of control | [12] 110 % of control | [14] 95 % of control

OCC1OC(CO)(c2ccccc2O)C(O)C1O (stereo not drawn) (tested in a mixture with another compound)
inactive: [15] 95 % of control | [16] 97 % of control | [17] 92 % of control

CCC(=O)NCC1(c2ccccc2)CCN(CC2COc3ccccc3O2)CC1 (stereo not drawn)
inactive: dose: 25.0 mg/kg/injection, schedule: Q01DX009 (ip), vehicle: saline 108 % of control | dose: 50.0 mg/kg/injection, schedule: Q01DX009 (ip), vehicle: saline 100 % of control | [9] 93 % of control | [18] 102 % of control
